Assay results: patent US20110189670A1, “Circulating Tumor and Tumor Stem Cell Detection Using Genomic Specific Probes” (priority 2008, published 2011)

Test system: peripheral blood lymphocytes
Experiment: Cytokinesis-block micronucleus (CBMN) assay, spontaneous and NNK-induced chromosomal damage (MN, NPBs, NBUDs)
Type: cell-based, human
Settings: 0.24 mM NNK, 2 hours
Method: The CBMN test was performed using the cytochalasin B technique described by Fenech and Morley and following recommendations from The International Collaborative Project on Micronucleus Frequency in Human Populations (HUMN Project) (22) to measure MN, NPBs and NBUDs in untreated cells and NNK-treated cells. Duplicate lymphocyte cultures were prepared for each study subject. Each culture contained 2.0×10^6 cells in 5 mL RPM1 1640 medium supplemented with 100 U/mL penicillin, 100 μg/mL streptomycin, 10% fetal bovine serum, and 2 mM L-glutamine (Gibco-Invitrogen, Carlsbad, Calif.) and 1% phytohemagglutinin (Remel, Lenexa, Kans.). For the cultures treated with NNK, 24 hours after initiation, the PBLs were centrifuged and the supernatant growth medium was removed and reserved. The PBLs were resuspended in 5 mL of serum-free RPM1 1640 medium supplemented with 0.24 mM NNK (CAS No 64091-91-4, National Cancer Institute, Midwest Carcinogen Repository, Kansas City, Mo.) and incubated at 37° C. in the presence of 5% COz for 2 hours. Next, the PBLs were washed twice with serum-free RPM1 1640, transferred to clean tubes and re-incubated for 48 hours in the reserved supernatant At 44 hours after initiation, cells were blocked in cytokinesis by adding cytochalasin B (Sigma, St Louis, Mo.; final concentration 4 μg/mL). Similarly, cultures for the determination of spontaneous damage (untreated cells) were handled in the same manner, with the exception of treatment with NNK. The total incubation time for all cultures was 72 hours. After incubation, the cells were fixed in 3:1 methanol:glacial acetic acid, dropped onto clean microscopic slides, air-dried and stained with Giemsa stain. For each sample, 1000 binucleated cells were scored blindly using a Nikon E-400 light optical microscope following the scoring criteria outlined by HUMN Project (2,11,23); the numbers of MN, NPBs, and NBUDs per 1000 binucleated cells were recorded For quality control, 20% of the slides were randomly selected and blindly rescored and the results compared with the original scoring
Tobacco smoke carcinogens and individual susceptibility play key roles in determining risk of lung cancer. There are a variety of biomarkers evaluating susceptibility to the carcinogenic effects of benzo[a]pyrene; however, no assays specifically evaluate susceptibility to the nicotine-derived nitrosamine 4-(methylnitrosamino)-1-(3-pyridyl)-1-butanone (NNK), a potent inducer of lung adenocarcinoma. In this case-control study, the inventors modified the cytokinesis-block micronucleus (CBMN) assay, an established biomarker for DNA damage and genomic instability, to evaluate susceptibility to NNK by measuring the frequency of NNK-induced chromosomal damage endpoints (micronuclei [MN]; nucleoplasmic bridges [NPBs] and nuclear buds “BUDS]) per 1000 binucleated peripheral blood lymphocytes. […] Forty-seven percent of the cases (compared with 12% of the controls) had ≧4 spontaneous MN, 66% of the cases (and no controls) had ≧4 spontaneous NPBs, and 25% of cases (versus 5% of controls) had ≧1 spontaneous NBUDs (P<001). Similarly, 40% of the cases (versus 6% of the controls) had ≧5 NNK-induced MN, 89% of the cases (and no controls) had ≧6 induced NPBs, and 23% of the cases (vs 2% of the controls had 2 induced NBUDs (P<001). As continuous variables, spontaneous MN, NPBs and NBUDs were associated with 2-, 29-, and 6-fold increases in risk for cancer. Similarly, NNK-induced 2 3-, 45.5-, and 10-fold increases in risk for cancer. The inventors also evaluated the use of results from the CBMN assay to predict cancer risk based on the numbers of MN, NPBs, and NBUDs defined by percentile cut-points in control data. The probability of being a cancer patient were 96%, 98% and 100% when using the 95th percentiles of spontaneous and NNK-induced MN, NPBs and NBUDs, respectively, in combination. […]

CN(CCCC(=O)c1cccnc1)N=O [NNK, 4-(methylnitrosamino)-1-(3-pyridyl)-1-butanone]
subjects with 2 induced NBUDs per 1000 binucleated peripheral blood lymphocytes (lung cancer cases (139)): 23%
subjects with ≧5 NNK-induced MN per 1000 binucleated peripheral blood lymphocytes (lung cancer cases (139)): 40%
subjects with ≧6 induced NPBs per 1000 binucleated peripheral blood lymphocytes (lung cancer cases (139)): 89%
subjects with 2 induced NBUDs per 1000 binucleated peripheral blood lymphocytes (matched controls (130)): 2%
subjects with ≧5 NNK-induced MN per 1000 binucleated peripheral blood lymphocytes (matched controls (130)): 6%
subjects with ≧6 induced NPBs per 1000 binucleated peripheral blood lymphocytes (matched controls (130)): no controls
